This data set is described as follows: logP determination by HPLC on a reversed-phase column (C 18), EEC Directive 79/831 Annex V.A8. The format is physicochemical. As to the method: The stated logP values were determined in accordance with EEC Directive 79/831 Annex V.A8 by HPLC (high performance liquid chromatography) on a reversed-phase column (C 18). Temperature: 43° C.
Setting [1] is: method marker [a] (footnote not shown), isomer A / isomer B / isomer mixture as noted in the cell.
The mark [2] stands for this setting: method marker [b], isomer A / isomer B / isomer mixture as noted in the cell.

These results are taken from patent US20100022559A1, “BISOXIMES AS FUNGICIDES” (BAYER CROPSCIENCE AG, priority 2006, published 2010).

Turning to `CCCC(=NOCCCON=C(CCC)c1ncccc1C)c1ncccc1C` (single isomer, unassigned) [compound 99], the logP under setting [1] is 4.22^[a] (isomer A).

In the case of `CC=Cc1cc(C)nc(C(C)=NOCC(C)CON=C(C)c2cc(C=CC)cc(C)n2)c1` (centres unmarked) [compound 866], the logP runs as follows: (value marked [a]) 4.57^[a]; (value marked [b]) 4.57^[b].

Consider `C=C(CON=C(CCC)c1cccc(C)n1)CON=C(CCC)c1cccc(C)n1` (mixture of isomers) [Compound 240], for which the logP under setting [1] is 6.27^[a].

Regarding `C=C(CON=C(C)c1cccc(C)n1)CON=C(C)c1cc2ccccc2o1` [compound 404], the logP (value marked [b]) was 4.57^[b].

Turning to `CCC(C)(CON=C(C)c1cccc(C)n1)CON=C(C)c1cccc(C)n1` (centres unmarked) [Compound 788], the logP is, setting by setting: (value marked [b]) 5.73^[b]; (value marked [c]) 6.47^[c].

Consider `C=C(CO/N=C(\N)c1nc(C)c(Cl)c(C)n1)CO/N=C(\N)c1nc(C)c(Cl)c(C)n1` [compound 46], for which the logP under setting [2] was 2.84^[b].

For the molecule `C=C(CON=C(C)c1ccc(C)c(C)n1)CON=C(C)c1ccc(C)c(C)n1` [Compound 67], the logP under setting [2] was 2.82^[b].

As to `CCCC(=NOCCCCON=C(CCC)c1cccc(C)n1)c1cccc(C)n1` [compound 227], the logP under setting [1] was 6.26^[a].

With `CC(=NOCC(CON=C(C)c1cccc(C)n1)Cc1ccccc1)c1cccc(C)n1` (centres unmarked) [Compound 583], the logP is 5.37^b] (method marked [b] in Table 1) and 6.34^[c] (method marked [c] in Table 1).

As for `C=C(CON=C(C)c1cccc(C)n1)CON=C(N)c1nc(COC)c(C)c(COC)n1` [compound 183], the logP under setting [2] is 1.92^[b].

As to `C=C(CON=C(C)c1cccc(C(F)(F)F)n1)CON=C(C)c1cccc(C(F)(F)F)n1` [compound 176], the logP under setting [2] was 6.02^[b].

Consider `CC(=NOCC(C)(C)CON=C(C)c1ccc2c(n1)CCCCC2)c1ccc2c(n1)CCCCC2` [Compound 592], for which the logP (method marked [a] in Table 1) was 6.04^[a].

As for `CC(=NOCC1(CON=C(C)c2cccc(C)n2)CC(c2ccccc2Cl)=NO1)c1cccc(C)n1` (centres unmarked) [compound 602], the logP (method marked [b] in Table 1) is 4.46^[b].

In the case of `C=C(CON=C(C)c1nc(C)c(C)s1)CON=C(C)c1nc(C)c(C)s1` (single isomer, unassigned) [compound 69], the logP under setting [2] was 4.99^[b] (isomer A).

With `CC(=NOCC(C)(C)CON=C(C)c1cccc(C)n1)c1cccc(Cl)c1` [Compound 483], the logP (value marked [b]) is 6.22^[b].

For `CC(=NOCC(C)(C)CON=C(C)c1cccc(C)n1)c1ccccc1` [compound 419], the logP (value marked [b]) was 5.42^[b].

For `CCC1=NOC(CON=C(c2cccc(C)n2)C2CC2)(CON=C(c2cccc(C)n2)C2CC2)C1` (centres unmarked) [compound 652], under “method marked [a] in Table 1”, the logP is 2.95^[a].

For the molecule `CC(=NOCC(C)CON=C(C)c1ccc(C)c(C)n1)c1cc(Cl)cc(C)n1` (centres unmarked) [compound 876], the logP runs as follows: (value marked [a]) 6.52^[a]; (value marked [b]) 6.52^[b]; (value marked [c]) 7.36^[c].

For `CC(=NOCC(CON=C(C)c1nc(C)ccc1C)Cc1ccccc1)c1nc(C)ccc1C` (centres unmarked) [compound 590], the logP runs as follows: (method marked [b] in Table 1) 4.15^[b]; (method marked [c] in Table 1) 6.01^[c].

Turning to `C=C(CON=C(c1cccc(C)n1)C1CC1)CON=C(c1cccc(C)n1)C1CC1` (mixture of isomers) [Compound 312], under “value marked [a]”, the logP is 3.10^[a].

As to `CCC1=NOC(CON=C(C)c2ccc(C)c(C)n2)(CON=C(C)c2ccc(C)c(C)n2)C1` (centres unmarked) [compound 628], the logP (method marked [b] in Table 1) was 2.51^[b].

`C=C(CON=C(C)c1cccc(C)n1)CON=C(C)c1ncccc1Cl` (single isomer, unassigned) [compound 140]: the logP under setting [2] was 4.40^[b] (isomer A).

As to `CCC(=NOCC(C)CON=C(C)c1cccc(C)n1)c1ncccc1C` (centres unmarked) [compound 425], the logP (value marked [b]) is 3.99^[b].

For `CC(=NOCC(C)(C)CON=C(C)c1ccc(C)o1)c1ccc(C)o1` [Compound 698], the logP (method marked [b] in Table 1) is 5.00^[b].

Consider `C=CCOC(C)(CON=C(C)c1cccc(C)n1)C(C)ON=C(C)c1cccc(C)n1` (centres unmarked) [compound 872], for which the logP was 6.13^[a] (value marked [a]), 6.13^[b] (value marked [b]) and 6.96^[c] (value marked [c]).

As for `CC(=NOCCCCON=C(C)c1cccc(C)n1)c1ccc2c(c1)CC(C)O2` (centres unmarked) [compound 441], under “value marked [b]”, the logP was 4.91^[b].

Turning to `C=C(CON=C(C)c1ccc(C(F)(F)F)cn1)CON=C(C)c1cccc(C)n1` [Compound 66], under setting [2], the logP was 5.15^[b].

Consider `CC(=NOCCCON=C(C)c1ccc(C)c(C)n1)c1ccc(C)c(C)n1` [Compound 72], for which the logP under setting [1] was 2.23^[a].

Turning to `C=C(CON=C(Cl)c1cc(C)cc(C)n1)CON=C(Cl)c1cc(C)cc(C)n1` [compound 795], the logP (value marked [a]) was 4.62^[a].

With `CC(=NOC/C=C/CON=C(C)c1nc(C)c(C)s1)c1nc(C)c(C)s1` (single isomer, unassigned) [compound 766], where the note is “value marked [b]”, the logP is 5.08^[b] (isomer A).

As to `Cc1cccc(C(=NOCC2(CON=C(c3cccc(C)n3)C3CC3)CC(CC(C)C)=NO2)C2CC2)n1` (centres unmarked) [compound 653], the logP (method marked [a] in Table 1) was 3.99^[a].

For the molecule `CC(=NOC(=O)NCCCCNC(=O)ON=C(C)c1ccc(C)c(C)n1)c1ccc(C)c(C)n1` [compound 851], the logP (value marked [a]) was 2.04^[a].

In the case of `CC(=NOCCCCCCON=C(C)c1cccc(Cc2ccccc2)n1)c1cccc(C)n1` [compound 340], the logP (value marked [b]) is 6.86^[b].

As for `CC(=NOCC(C)CON=C(C)c1cccc(C(F)F)n1)c1cccc(C(F)F)n1` (centres unmarked) [compound 306], the logP (value marked [a]) was 5.49^[a].

As to `CC(=NOCC(CON=C(C)c1cccc(C)n1)C(C)(C)C)c1cccc(C)n1` (centres unmarked) [Compound 269], the logP (value marked [b]) was 5.51^[b].

With `C=C(CON=C(C)c1ccc[nH]1)CON=C(C)c1ccc[nH]1` [compound 564], the logP runs as follows: (method marked [b] in Table 1) 3.23^[b]; (method marked [c] in Table 1) 3.20^[c].

Take `CC(=NOCCON=C(C)c1ccccn1)c1ccccn1` [compound 30]: the logP under setting [2] is 2.21^[b].

In the case of `CC(=NOCCCON=C(C)c1cccc(C)n1)c1cccc(C)n1` [Compound 14], the logP under setting [1] was 2.66^[a].

As to `CC(=NOCCCCCCON=C(C)c1cncc(C)n1)c1cccc(C)n1` [compound 466], the logP (value marked [b]) is 4.8^[b].

As for `CCC(CC)(CON=C(C)c1nc(C)ccc1C)CON=C(C)c1nc(C)ccc1C` [compound 882], the logP is, setting by setting: (value marked [b]) 3.90^[b]; (value marked [c]) 5.41^[c].

As for `CC(=NOCCCCON=C(C)c1ccccn1)c1ccccn1` [compound 124], the logP under setting [2] is 3.00^[b].

With `CC(=NOCCON=C(C)c1nc(C)c(C)s1)c1nc(C)c(C)s1` [compound 50], the logP under setting [2] was 4.35^[b].

With `CC(=NOCCCCON=C(Cc1ccccc1)c1ncccc1C)c1cccc(C)n1` [compound 528], where the note is “value marked [b]”, the logP was 3.24^[b].

For `CC(=NOCC(C)(C)CON=C(c1cccc(C)n1)C(C)C)c1cccc(C)n1` [compound 547], where the note is “method marked [b] in Table 1”, the logP was 4.57^[b].

For `C=C(CON=C(C)c1cccc(C)n1)CON=C(C)c1nc(C)c(C)s1` [Compound 18], the logP under setting [2] was 4.41^[b].

`CON=C(CON=C(C)c1cccc(C)n1)CON=C(C)c1cccc(C)n1` [compound 113]: the logP under setting [2] was 3.26^[b].

Turning to `C=C(CON=C(C)c1cccc(C)n1)CON=C(C)c1ncccc1C` (single isomer, unassigned) [Compound 203], under setting [2], the logP was 3.03^[b] (isomer A).

As to `CCC(=NOCCCCCCON=C(C)c1cccc(C)n1)c1ncccc1C` (single isomer, unassigned) [compound 532], for the setting “value marked [b]”, the logP is reported as 3.99^b] (isomer )A.

Regarding `CC(=NOCC1(CON=C(C)c2cccc(NCC3CC3)n2)CCC1)c1cccc(NCC2CC2)n1` [compound 850], under “value marked [b]”, the logP was 2.28^[b].

Take `C=C(CON=C(C)c1cccc(C)n1)CON=C(C)c1cc(C)cc(C)n1` [Compound 474]: under “value marked [b]”, the logP is 2.55^[b].

On to `N/C(=N\OCc1cccc(CO/N=C(\N)c2nc(C3CC3)cc(C3CC3)n2)c1)c1nc(C2CC2)cc(C2CC2)n1` [compound 716], for which the logP (method marked [b] in Table 1) was 3.76^[b].

In the case of `CC(=NOCCCCON=C(C)c1cccc(C)n1)c1cccnc1` [compound 384], the logP (value marked [b]) is 2.18^[b].

On to `CC(=NOCC(C)(C)CON=C(C)c1cccc(C)n1)c1cnccn1` [compound 515], for which the logP (value marked [b]) was 3.70^[b].

For the molecule `CC(=NOCC(C)CON=C(C)c1csc(C)n1)c1csc(C)n1` (centres unmarked) [compound 517], the logP reads like this: (value marked [a]) 3.52^[a]; (value marked [b]) 3.52^[b].

With `CC(=NOCC(C)CON=C(c1ccccc1)c1ncccc1C)c1cccc(C)n1` (centres unmarked) [compound 421], the logP (value marked [b]) is 4.15^[b].

In the case of `C=C(CON=C(Cl)c1cccc(C)n1)CON=C(Cl)c1cccc(C)n1` [compound 696], the logP (method marked [b] in Table 1) was 4.01^[b].

In the case of `CCCC(=NOCCCCCCON=C(C)c1cccc(C)n1)c1cccc(C)n1` [compound 345], the logP (value marked [b]) was 6.16^[b].

Consider `C=C(CON=C(C)c1cc(C)c2ccccc2n1)CON=C(C)c1cc(C)c2ccccc2n1` [compound 160], for which the logP under setting [2] is given as 7.00^b].

In the case of `C=C(CON=Cc1cccc(C)n1)CON=Cc1cccc(C)n1` (single isomer, unassigned) [compound 662], the logP (method marked [b] in Table 1) was 2.16^[b] (isomer B).

`CC[Si](CC)(CON=C(C)c1cc(C)cc(C)n1)CON=C(C)c1cc(C)cc(C)n1` [Compound 787]: the logP by setting is: (value marked [a]) 5.05^[a]; (value marked [b]) 5.05^[b]; (value marked [c]) 7.36^[c].

Consider `CC(=NOCC(C)(C)CON=C(CC(C)C)c1cccc(C)n1)c1cccc(C)n1` [Compound 538], for which, for the setting “method marked [b] in Table 1”, the logP was 6.47^[b].

On to `CC1=NOC(CON=C(C)c2ccc(C)c(C)n2)(CON=C(C)c2ccc(C)c(C)n2)C1` (centres unmarked) [compound 626], for which the logP (method marked [b] in Table 1) was 2.07^[b].

On to `C=C(CON=Cc1cccc(C)n1)CON=Cc1cccc(C)n1` [compound 667], for which the logP (method marked [b] in Table 1) was 2.16^[b].

Take `CC(=NOCC(CON=C(C)c1cccc(C)n1)=NO)c1cccc(C)n1` [compound 82]: the logP under setting [2] is 1.91^[b].
